# According to paper PMC4490784, “Compensatory induction of MYC expression by sustained CDK9 inhibition via a BRD4-dependent mechanism” (eLife, 2015):
# Columns and labels:
# Experiment in all cases: KINOMEscan binding assay
# [1] = target: T1, MST3 (Homo sapiens, UniProt Q9Y6E0)
# T1 construct: purchased DiscoveRx KINOMEscan
# In short: (§1)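 Panel of >400 kinases screened by active-site competition binding, compound at 1 and 10 µM.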
# [2] = target: T2, DYRK1B (Homo sapiens, UniProt Q9Y463); conditions: read-out: % Retention on Solid Support
# T2 construct: purchased DiscoveRx KINOMEscan
# In short: as §1
# [3] = target: T3, FRK (Homo sapiens, UniProt P42685); conditions: read-out: % Retention on Solid Support
# T3 construct: purchased DiscoveRx KINOMEscan
# In short: as §1
# [4] = target: T4, RSK3(Kin.Dom.1-N-terminal) (Homo sapiens, UniProt Q15349); conditions: read-out: % Retention on Solid Support
# T4 construct: RSK3(Kin.Dom.1-N-terminal); purchased DiscoveRx KINOMEscan
# In short: as §1
# [5] = target: T5, CAMK2B (Homo sapiens, UniProt Q13554); conditions: read-out: % Retention on Solid Support
# T5 construct: purchased DiscoveRx KINOMEscan
# In short: as §1
# [6] = target: T6, PRKCQ (Homo sapiens, UniProt Q04759); conditions: read-out: % Retention on Solid Support
# T6 construct: purchased DiscoveRx KINOMEscan
# In short: as §1
# [7] = target: T7, QSK (Homo sapiens, UniProt Q9Y2K2)
# T7 construct: purchased DiscoveRx KINOMEscan
# In short: as §1
# [8] = target: T8, YSK4 (Homo sapiens, UniProt Q56UN5); conditions: read-out: % Retention on Solid Support
# T8 construct: purchased DiscoveRx KINOMEscan
# In short: as §1
# [9] = target: T9, NEK7 (Homo sapiens, UniProt Q8TDX7); conditions: read-out: % Retention on Solid Support
# T9 construct: purchased DiscoveRx KINOMEscan
# In short: as §1
# [10] = target: T10, NEK3 (Homo sapiens, UniProt P51956); conditions: 1 µM i-CDK9; read-out: % Retention on Solid Support
# T10 construct: purchased DiscoveRx KINOMEscan
# In short: as §1
# [11] = target: T11, IKK-beta (Homo sapiens, UniProt O14920); conditions: read-out: % Retention on Solid Support
# T11 construct: purchased DiscoveRx KINOMEscan
# In short: as §1
# [12] = target: T12, ABL1(F317I)-nonphosphorylated (Homo sapiens, UniProt P00519, F317I); conditions: read-out: % Retention on Solid Support
# T12 construct: purchased DiscoveRx KINOMEscan
# In short: as §1
# [13] = target: T13, ABL1(E255K)-phosphorylated (Homo sapiens, UniProt P00519, E255K); conditions: 1 µM i-CDK9; read-out: % Retention on Solid Support
# T13 construct: purchased DiscoveRx KINOMEscan
# In short: as §1
# [14] = target: T14, DAPK1 (Homo sapiens, UniProt P53355); conditions: read-out: % Retention on Solid Support
# T14 construct: purchased DiscoveRx KINOMEscan
# In short: as §1
# [15] = target: T15, LZK (Homo sapiens, UniProt O43283)
# T15 construct: purchased DiscoveRx KINOMEscan
# In short: as §1
# [16] = target: T16, CDK11 (Homo sapiens, UniProt Q9BWU1)
# T16 construct: purchased DiscoveRx KINOMEscan
# In short: as §1
# [17] = target: T17, PAK3 (Homo sapiens, UniProt O75914); conditions: read-out: % Retention on Solid Support
# T17 construct: purchased DiscoveRx KINOMEscan
# In short: as §1
# [18] = target: T18, ABL1(T315I)-nonphosphorylated (Homo sapiens, UniProt P00519, T315I); conditions: read-out: % Retention on Solid Support
# T18 construct: purchased DiscoveRx KINOMEscan
# In short: as §1
# [19] = target: T19, MELK (Homo sapiens, UniProt Q14680); conditions: read-out: % Retention on Solid Support
# T19 construct: purchased DiscoveRx KINOMEscan
# In short: as §1
# [20] = target: T20, MAK (Homo sapiens, UniProt P20794); conditions: read-out: % Retention on Solid Support
# T20 construct: purchased DiscoveRx KINOMEscan
# In short: as §1
# [21] = target: T21, OSR1 (Homo sapiens, UniProt O95747); conditions: read-out: % Retention on Solid Support
# T21 construct: purchased DiscoveRx KINOMEscan
# In short: as §1
# [22] = target: T22, KIT(V559D) (Homo sapiens, UniProt P10721, V559D); conditions: read-out: % Retention on Solid Support
# T22 construct: purchased DiscoveRx KINOMEscan
# In short: as §1
# [23] = target: T23, EPHB1 (Homo sapiens, UniProt P54762); conditions: read-out: % Retention on Solid Support
# T23 construct: purchased DiscoveRx KINOMEscan
# In short: as §1
# [24] = target: T24, PIM2 (Homo sapiens, UniProt Q9P1W9); conditions: read-out: % Retention on Solid Support
# T24 construct: purchased DiscoveRx KINOMEscan
# In short: as §1
# [25] = target: T25, BIKE (Homo sapiens, UniProt Q9NSY1); conditions: read-out: % Retention on Solid Support
# T25 construct: purchased DiscoveRx KINOMEscan
# In short: as §1
# [26] = target: T26, TLK1 (Homo sapiens, UniProt Q9UKI8); conditions: read-out: % Retention on Solid Support
# T26 construct: purchased DiscoveRx KINOMEscan
# In short: as §1
# [27] = target: T27, TAOK1 (Homo sapiens, UniProt Q7L7X3); conditions: read-out: % Retention on Solid Support
# T27 construct: purchased DiscoveRx KINOMEscan
# In short: as §1
# [28] = target: T28, STK16 (Homo sapiens, UniProt O75716); conditions: read-out: % Retention on Solid Support
# T28 construct: purchased DiscoveRx KINOMEscan
# In short: as §1
# [29] = target: T29, DDR2 (Homo sapiens, UniProt Q16832); conditions: read-out: % Retention on Solid Support
# T29 construct: purchased DiscoveRx KINOMEscan
# In short: as §1
# T4 sequence (Q15349 1-388 limits assumed): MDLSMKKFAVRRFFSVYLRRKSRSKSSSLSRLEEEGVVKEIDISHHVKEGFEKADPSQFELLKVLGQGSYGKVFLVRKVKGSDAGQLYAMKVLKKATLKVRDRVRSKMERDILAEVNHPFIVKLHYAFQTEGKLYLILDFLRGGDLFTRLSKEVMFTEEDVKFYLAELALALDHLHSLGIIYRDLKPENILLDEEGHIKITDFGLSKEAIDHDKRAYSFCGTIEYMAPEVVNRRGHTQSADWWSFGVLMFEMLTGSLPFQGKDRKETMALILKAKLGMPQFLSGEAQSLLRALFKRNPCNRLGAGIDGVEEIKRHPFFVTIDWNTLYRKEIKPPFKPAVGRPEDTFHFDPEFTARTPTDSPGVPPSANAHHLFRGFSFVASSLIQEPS
# T25 sequence (Q9NSY1 whole entry): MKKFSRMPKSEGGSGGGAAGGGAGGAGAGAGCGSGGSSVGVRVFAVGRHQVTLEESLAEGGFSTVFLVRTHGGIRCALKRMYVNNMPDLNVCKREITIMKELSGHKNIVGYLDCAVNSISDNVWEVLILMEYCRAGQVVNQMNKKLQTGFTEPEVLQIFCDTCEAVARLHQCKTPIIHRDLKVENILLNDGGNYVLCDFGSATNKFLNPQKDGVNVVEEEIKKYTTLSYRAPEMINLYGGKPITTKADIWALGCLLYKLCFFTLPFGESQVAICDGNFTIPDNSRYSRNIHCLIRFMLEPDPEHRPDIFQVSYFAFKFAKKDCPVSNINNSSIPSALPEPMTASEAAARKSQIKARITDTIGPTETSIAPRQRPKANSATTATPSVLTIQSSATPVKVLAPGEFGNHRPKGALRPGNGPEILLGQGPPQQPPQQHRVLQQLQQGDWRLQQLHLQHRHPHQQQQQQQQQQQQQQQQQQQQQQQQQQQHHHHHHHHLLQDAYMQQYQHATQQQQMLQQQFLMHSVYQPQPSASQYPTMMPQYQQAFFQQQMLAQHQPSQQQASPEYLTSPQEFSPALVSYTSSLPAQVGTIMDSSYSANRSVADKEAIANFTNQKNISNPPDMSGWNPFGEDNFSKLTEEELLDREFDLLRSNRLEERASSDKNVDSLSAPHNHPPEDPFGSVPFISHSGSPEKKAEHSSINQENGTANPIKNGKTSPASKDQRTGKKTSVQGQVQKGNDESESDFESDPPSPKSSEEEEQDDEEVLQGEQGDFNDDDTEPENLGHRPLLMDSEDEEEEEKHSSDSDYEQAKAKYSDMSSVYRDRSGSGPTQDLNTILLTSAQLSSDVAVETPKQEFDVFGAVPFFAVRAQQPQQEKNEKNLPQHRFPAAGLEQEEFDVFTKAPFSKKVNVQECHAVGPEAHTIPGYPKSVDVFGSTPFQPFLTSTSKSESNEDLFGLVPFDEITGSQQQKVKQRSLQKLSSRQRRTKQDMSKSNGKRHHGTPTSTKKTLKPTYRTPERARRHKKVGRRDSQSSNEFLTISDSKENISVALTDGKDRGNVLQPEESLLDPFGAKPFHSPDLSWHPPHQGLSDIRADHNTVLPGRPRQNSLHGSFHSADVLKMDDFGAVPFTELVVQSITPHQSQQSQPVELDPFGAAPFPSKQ
# T1 sequence (Q9Y6E0 whole entry): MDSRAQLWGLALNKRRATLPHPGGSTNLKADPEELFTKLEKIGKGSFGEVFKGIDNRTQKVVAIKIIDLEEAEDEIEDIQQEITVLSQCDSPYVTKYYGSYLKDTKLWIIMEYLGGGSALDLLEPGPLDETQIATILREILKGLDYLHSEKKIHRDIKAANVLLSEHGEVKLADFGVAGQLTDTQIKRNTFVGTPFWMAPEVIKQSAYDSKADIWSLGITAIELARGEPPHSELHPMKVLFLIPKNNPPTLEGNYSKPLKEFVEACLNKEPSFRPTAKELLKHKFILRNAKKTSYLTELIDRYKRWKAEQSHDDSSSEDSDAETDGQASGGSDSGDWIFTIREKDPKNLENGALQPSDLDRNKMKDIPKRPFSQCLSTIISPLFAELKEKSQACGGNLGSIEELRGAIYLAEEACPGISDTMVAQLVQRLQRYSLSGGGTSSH
# T17 sequence (O75914 whole entry): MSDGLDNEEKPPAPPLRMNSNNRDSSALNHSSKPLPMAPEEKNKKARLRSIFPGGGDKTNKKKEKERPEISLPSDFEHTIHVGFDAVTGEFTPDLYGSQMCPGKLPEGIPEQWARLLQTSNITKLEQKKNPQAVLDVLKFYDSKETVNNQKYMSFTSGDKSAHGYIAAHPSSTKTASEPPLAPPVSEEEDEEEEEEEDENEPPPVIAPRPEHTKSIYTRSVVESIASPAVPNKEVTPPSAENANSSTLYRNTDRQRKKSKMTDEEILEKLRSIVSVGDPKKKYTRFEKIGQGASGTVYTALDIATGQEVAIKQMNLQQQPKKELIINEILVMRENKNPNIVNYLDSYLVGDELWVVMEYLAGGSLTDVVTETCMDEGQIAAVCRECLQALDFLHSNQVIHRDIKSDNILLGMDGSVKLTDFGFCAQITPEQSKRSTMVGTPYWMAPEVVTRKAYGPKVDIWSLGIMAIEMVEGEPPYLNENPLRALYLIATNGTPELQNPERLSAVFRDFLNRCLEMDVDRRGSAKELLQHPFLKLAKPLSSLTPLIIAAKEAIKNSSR
# T20 sequence (P20794 whole entry): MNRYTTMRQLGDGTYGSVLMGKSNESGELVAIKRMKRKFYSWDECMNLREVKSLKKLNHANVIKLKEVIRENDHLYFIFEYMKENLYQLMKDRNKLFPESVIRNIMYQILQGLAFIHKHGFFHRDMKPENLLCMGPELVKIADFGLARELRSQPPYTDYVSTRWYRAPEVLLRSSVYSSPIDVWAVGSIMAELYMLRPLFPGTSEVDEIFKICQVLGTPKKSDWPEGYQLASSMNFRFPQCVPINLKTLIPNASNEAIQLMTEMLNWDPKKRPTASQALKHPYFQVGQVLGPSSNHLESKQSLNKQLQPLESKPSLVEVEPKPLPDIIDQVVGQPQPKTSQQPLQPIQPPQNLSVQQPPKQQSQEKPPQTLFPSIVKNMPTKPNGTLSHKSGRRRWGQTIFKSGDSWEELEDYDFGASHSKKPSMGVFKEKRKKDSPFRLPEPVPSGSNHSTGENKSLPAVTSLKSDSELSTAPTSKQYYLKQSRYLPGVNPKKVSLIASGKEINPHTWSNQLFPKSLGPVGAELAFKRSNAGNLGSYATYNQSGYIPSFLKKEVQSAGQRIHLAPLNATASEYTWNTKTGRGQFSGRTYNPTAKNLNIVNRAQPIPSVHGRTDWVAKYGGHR
# T7 sequence (Q9Y2K2 whole entry): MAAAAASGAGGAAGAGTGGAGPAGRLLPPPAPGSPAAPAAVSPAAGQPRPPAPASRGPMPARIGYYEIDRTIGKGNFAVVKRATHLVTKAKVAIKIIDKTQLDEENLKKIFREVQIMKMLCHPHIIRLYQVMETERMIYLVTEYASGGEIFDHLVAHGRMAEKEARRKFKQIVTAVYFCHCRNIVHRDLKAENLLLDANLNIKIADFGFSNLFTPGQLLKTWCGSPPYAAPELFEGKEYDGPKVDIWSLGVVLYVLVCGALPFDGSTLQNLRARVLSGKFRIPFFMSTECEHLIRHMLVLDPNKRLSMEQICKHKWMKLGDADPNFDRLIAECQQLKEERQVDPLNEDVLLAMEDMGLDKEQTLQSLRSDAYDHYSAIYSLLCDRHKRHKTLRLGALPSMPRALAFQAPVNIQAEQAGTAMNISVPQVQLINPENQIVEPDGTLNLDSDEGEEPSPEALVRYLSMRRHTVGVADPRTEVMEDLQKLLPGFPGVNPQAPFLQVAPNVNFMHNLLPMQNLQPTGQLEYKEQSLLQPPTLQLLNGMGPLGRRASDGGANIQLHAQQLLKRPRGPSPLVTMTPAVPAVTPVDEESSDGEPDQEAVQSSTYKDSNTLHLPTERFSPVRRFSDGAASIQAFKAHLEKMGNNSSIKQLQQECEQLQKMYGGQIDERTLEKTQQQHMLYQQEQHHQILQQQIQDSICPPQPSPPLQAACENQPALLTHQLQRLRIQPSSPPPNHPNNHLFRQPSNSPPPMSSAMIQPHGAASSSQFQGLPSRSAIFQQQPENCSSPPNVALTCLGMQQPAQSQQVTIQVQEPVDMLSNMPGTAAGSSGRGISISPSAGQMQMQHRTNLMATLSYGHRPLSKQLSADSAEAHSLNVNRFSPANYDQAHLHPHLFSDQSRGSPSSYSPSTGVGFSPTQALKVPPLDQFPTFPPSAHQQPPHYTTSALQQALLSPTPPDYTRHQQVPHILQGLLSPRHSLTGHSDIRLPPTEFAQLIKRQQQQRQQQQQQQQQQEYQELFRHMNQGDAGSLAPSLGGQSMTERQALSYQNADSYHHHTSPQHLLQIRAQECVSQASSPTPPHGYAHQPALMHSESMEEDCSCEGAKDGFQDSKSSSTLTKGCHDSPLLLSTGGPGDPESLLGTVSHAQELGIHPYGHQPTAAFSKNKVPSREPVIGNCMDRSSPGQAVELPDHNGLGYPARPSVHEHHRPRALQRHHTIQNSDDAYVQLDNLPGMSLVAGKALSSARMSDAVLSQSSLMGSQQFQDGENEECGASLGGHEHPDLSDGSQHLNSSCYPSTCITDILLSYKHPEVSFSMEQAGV
# T21 sequence (O95747 whole entry): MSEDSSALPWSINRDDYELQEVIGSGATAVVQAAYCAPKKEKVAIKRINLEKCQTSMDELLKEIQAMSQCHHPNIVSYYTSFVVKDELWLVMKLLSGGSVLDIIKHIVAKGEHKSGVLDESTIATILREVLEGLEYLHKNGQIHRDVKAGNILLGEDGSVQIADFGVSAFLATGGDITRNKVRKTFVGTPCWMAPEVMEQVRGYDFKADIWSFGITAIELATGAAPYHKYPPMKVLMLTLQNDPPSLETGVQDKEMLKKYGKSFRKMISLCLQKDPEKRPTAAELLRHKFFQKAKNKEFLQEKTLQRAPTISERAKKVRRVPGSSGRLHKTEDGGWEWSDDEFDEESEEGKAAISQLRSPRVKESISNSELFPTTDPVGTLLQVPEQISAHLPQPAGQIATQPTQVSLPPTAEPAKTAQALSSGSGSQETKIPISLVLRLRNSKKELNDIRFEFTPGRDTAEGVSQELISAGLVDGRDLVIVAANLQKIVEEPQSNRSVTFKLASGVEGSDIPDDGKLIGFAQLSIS
smiles,measurement,setting,value
"N[C@H]1CC[C@H](Nc2cc(-c3cccc(NCc4cccc(F)c4)n3)c(Cl)cn2)CC1 [i-CDK9, N2′-(trans-4-aminocyclohexyl)-5′-chloro-N6-(3-fluorobenzyl)-2,4′-bipyridine-2′,6-diamine]",% Retention on Solid Support,[1]; 1 µM i-CDK9,83%
same,% Retention on Solid Support,[1]; 10 µM i-CDK9,90%
same,remaining binding at 1 µM,[2]; 1 µM i-CDK9,0.95%
same,remaining binding at 10 µM,[2]; 10 µM i-CDK9,0.7%
same,remaining binding at 1 µM,[3]; 1 µM i-CDK9,72%
same,remaining binding at 10 µM,[3]; 10 µM i-CDK9,100%
same,remaining binding at 1 µM,[4]; 1 µM i-CDK9,100%
same,remaining binding at 10 µM,[4]; 10 µM i-CDK9,78%
same,remaining binding at 1 µM,[5]; 1 µM i-CDK9,100%
same,remaining binding at 10 µM,[5]; 10 µM i-CDK9,81%
same,remaining binding at 1 µM,[6]; 1 µM i-CDK9,100%
same,remaining binding at 10 µM,[6]; 10 µM i-CDK9,88%
same,% Retention on Solid Support,[7]; 1 µM i-CDK9,7.4%
same,% Retention on Solid Support,[7]; 10 µM i-CDK9,92%
same,remaining binding at 1 µM,[8]; 1 µM i-CDK9,100%
same,remaining binding at 10 µM,[8]; 10 µM i-CDK9,68%
same,remaining binding at 1 µM,[9]; 1 µM i-CDK9,100%
same,remaining binding at 10 µM,[9]; 10 µM i-CDK9,100%
same,remaining binding at 1 µM,[10],100%
same,remaining binding at 1 µM,[11]; 1 µM i-CDK9,100%
same,remaining binding at 10 µM,[11]; 10 µM i-CDK9,87%
same,remaining binding at 1 µM,[12]; 1 µM i-CDK9,99%
same,remaining binding at 10 µM,[12]; 10 µM i-CDK9,75%
same,remaining binding at 1 µM,[13],74%
same,remaining binding at 1 µM,[14]; 1 µM i-CDK9,64%
same,remaining binding at 10 µM,[14]; 10 µM i-CDK9,100%
same,% Retention on Solid Support,[15]; 1 µM i-CDK9,100%
same,% Retention on Solid Support,[15]; 10 µM i-CDK9,100%
same,% Retention on Solid Support,[16]; 1 µM i-CDK9,94%
same,% Retention on Solid Support,[16]; 10 µM i-CDK9,100%
same,remaining binding at 1 µM,[17]; 1 µM i-CDK9,100%
same,remaining binding at 10 µM,[17]; 10 µM i-CDK9,98%
same,remaining binding at 1 µM,[18]; 1 µM i-CDK9,100%
same,remaining binding at 10 µM,[18]; 10 µM i-CDK9,83%
same,remaining binding at 1 µM,[19]; 1 µM i-CDK9,100%
same,remaining binding at 10 µM,[19]; 10 µM i-CDK9,95%
same,remaining binding at 1 µM,[20]; 1 µM i-CDK9,100%
same,remaining binding at 10 µM,[20]; 10 µM i-CDK9,30%
same,remaining binding at 1 µM,[21]; 1 µM i-CDK9,97%
same,remaining binding at 10 µM,[21]; 10 µM i-CDK9,85%
same,remaining binding at 1 µM,[22]; 1 µM i-CDK9,88%
same,remaining binding at 10 µM,[22]; 10 µM i-CDK9,90%
same,remaining binding at 1 µM,[23]; 1 µM i-CDK9,100%
same,remaining binding at 10 µM,[23]; 10 µM i-CDK9,100%
same,remaining binding at 1 µM,[24]; 1 µM i-CDK9,96%
same,remaining binding at 10 µM,[24]; 10 µM i-CDK9,22%
same,remaining binding at 1 µM,[25]; 1 µM i-CDK9,100%
same,remaining binding at 10 µM,[25]; 10 µM i-CDK9,63%
same,remaining binding at 1 µM,[26]; 1 µM i-CDK9,62%
same,remaining binding at 10 µM,[26]; 10 µM i-CDK9,95%
same,remaining binding at 1 µM,[27]; 1 µM i-CDK9,51%
same,remaining binding at 10 µM,[27]; 10 µM i-CDK9,4%
same,remaining binding at 1 µM,[28]; 1 µM i-CDK9,95%
same,remaining binding at 10 µM,[28]; 10 µM i-CDK9,100%
same,remaining binding at 1 µM,[29]; 1 µM i-CDK9,100%
same,remaining binding at 10 µM,[29]; 10 µM i-CDK9,92%
